Data published in patent US6998395B2, “Administration of estradiol metabolites for the treatment or prevention of obesity, metabolic syndrome, diabetes, and vascular and renal disorders” (University of Pittsburg,, priority 2001, dated 2006).

Key:
female ZSF1 rats = assay: Treatment of ovarectomized female ZSF1 rats for 24 weeks with 2-hydroxyestradiol; type: in vivo, rat; details: 10 ug/kg/hr
Experimental: Male ZSF1 rats were treated continuously for 24 weeks with polyethylene glycol 400 (PEG 400) (Sigma, St. Louis, Mo.) or one of three doses of 2-hydroxyestradiol or 2-methoxyestradiol (Steraloids, Inc. Newport, R.I.) dissolved in PEG 400. The three doses were 1 ug/kg/hr, 3 ug/kg/hr or 10 ug/kg/hr. Female ZSF1 rats were treated continuously for 24 weeks with either PEG 400 or 10 ug/kg/hr of 2-hydroxyestradiol. Female ZSF1 rats were ovarectomized at 11 weeks of age. For all animals, both male and female, treatments with estradiol metabolites were begun at approximately 13 weeks of age. […]
Metabolic cages (Nalgene, Rochester, N.Y.) were used in this study. […] The first 24-hour period was considered an acclimation period, while food and fluid intake and urine volume were measured during the second 24-hour period. […] The blood was further analyzed to assess creatinine clearance, fractional sodium excretion, fractional potassium excretion and fractional albumin excretion. In addition, the following criteria were also assessed while the animals were in the metabolic cages: body weight, feed intake, water intake, urine output, urinary protein, urinary albumin, urinary glucose, urinary sodium and urinary potassium. […]
(§1) Food intake was measured by filling the food containers with standard powder laboratory food up to a total weight of 250 grams. […]

male ZSF1 rats = assay: Treatment of male ZSF1 rats for 24 weeks with 2-hydroxyestradiol or 2-methoxyestradiol; type: in vivo, rat
Experimental: Male ZSF1 rats were treated continuously for 24 weeks with polyethylene glycol 400 (PEG 400) (Sigma, St. Louis, Mo.) or one of three doses of 2-hydroxyestradiol or 2-methoxyestradiol (Steraloids, Inc. Newport, R.I.) dissolved in PEG 400. The three doses were 1 ug/kg/hr, 3 ug/kg/hr or 10 ug/kg/hr. Female ZSF1 rats were treated continuously for 24 weeks with either PEG 400 or 10 ug/kg/hr of 2-hydroxyestradiol. Female ZSF1 rats were ovarectomized at 11 weeks of age. For all animals, both male and female, treatments with estradiol metabolites were begun at approximately 13 weeks of age. One group of male ZSF1 rats received only PEG 400 but were pair fed to receive the same daily food intake as the male ZSF1 rats treated with 10 ug/kg/hr 2-hydroxyestradiol. Treatment was administered via subcutaneous implanted pumps (Alzet Osmotic Pump, Model 2ML4, Alza Corporation, Palo Alto, Calif.). The study was designed to evaluate treatment effects and dose responses on body weight, food intake, water intake, urine output, urinary protein excretion, cholesterol levels, plasma glucose levels and glucose tolerance.
Stock solutions of both 2-hydroxyestradiol and 2-methoxyestradiol were made by dissolving the required amount of estradiol metabolite in PEG 400. This solution was diluted in PEG 400 to deliver the three required doses based on the mean weight of each treatment group and the stated volume delivery rate for each lot of osmotic pumps in the study. This stock solution was prepared fresh prior to each osmotic pump implantation in each group. The control solution of PEG 400 was created in the same manner.
All treatments were administered via a subcutaneously implanted osmotic pump (Alzet Osmotic Pump, Model 2ML4, Alza Corporation, Palo Alto, Calif.). Each lot of osmotic pumps were delivered with the stated rate of delivery and formulation concentrations were adjusted to ensure delivery of 1,3, or 10 ug/kg/hr based on the stated rate of delivery of each lot. Doses were adjusted for the mean weight of the animals in the treatment group obtained 24 hours prior to implantation of the osmotic minipump.
Animals were anesthetized prior to implantation of an osmotic minipump with halothane and oxygen (2.5 liter/min) delivered by a Fluotec 3 anesthetic device (Ohmeda, Steeton, UK). After lightly anesthetizing each animal, implantation was accomplished by shaving the back and creating a half-inch incision in which to insert the osmotic minipump. The incision was then closed with wound clips that were removed in seven days. Osmotic minipumps were replaced at 33-day intervals and each time a particular animal received an osmotic minipump, the insertion point was changed.
Metabolic cages (Nalgene, Rochester, N.Y.) were used in this study. Animals were placed in metabolic cages for 48 hours. The first 24-hour period was considered an acclimation period, while food and fluid intake and urine volume were measured during the second 24-hour period. Additionally, a tail vein sample was obtained to measure blood glucose, sodium, potassium, albumin and creatinine. The blood was further analyzed to assess creatinine clearance, fractional sodium excretion, fractional potassium excretion and fractional albumin excretion. In addition, the following criteria were also assessed while the animals were in the metabolic cages: body weight, feed intake, water intake, urine output, urinary protein, urinary albumin, urinary glucose, urinary sodium and urinary potassium.
Body weights were assessed 24 hours before pump implantation and those weights were used to calculate the dosage of drug or vehicle to be given to each animal based on the mean body weight of each group. Animals were weighed approximately once every two months prior to being placed in a metabolic cage.
as §1

[1] = male, 10 ug/kg/hr, 24 weeks, versus control animals
[2] = male, 1, 3 or 10 ug/kg/hr s.c. osmotic pump, 24 weeks, versus control

## C[C@]12CC[C@@H]3c4cc(O)c(O)cc4CC[C@H]3[C@@H]1CC[C@@H]2O [2-hydroxyestradiol, estra-1,3,5 (10)-triene-2,3,1 7-triol (17β)]
Female ZSF1 rats; 20 weeks, versus control animals
  Leptin levels (FIG. 11): reduced
Female ZSF1 rats; 24 weeks, versus control groups
  Blood urea nitrogen (FIG. 10): lower
Male ZSF1 rats; male, 10 ug/kg/hr, 20 weeks, versus control animals
  Leptin levels (FIG. 11): clearly reduced
Male ZSF1 rats; [1]
  24-hour urine output (FIG. 13): lower
  24-hour water intake (FIG. 12): lower
Male ZSF1 rats; male, 10 ug/kg/hr, 24 weeks, versus control groups
  Blood urea nitrogen (FIG. 10): lower
Male ZSF1 rats; male, 10 ug/kg/hr, treated for 14 to 15 weeks, versus control groups
  Plasma level of glucose after administration of 2 g/4 ml/kg glucose (oral glucose tolerance test, FIGS. 8 and 9): lower
Male ZSF1 rats; [2]
  Body weight gain (FIGS. 4 and 5): less body weight gain
  Food intake: lower food intake
Male ZSF1 rats; male, 1, 3 or 10 ug/kg/hr, after 24 weeks of treatment, versus control animals
  Urinary protein excretion (FIG. 7): lower
